The text below walks through data of patent US20040152903A1, “6-chloro-3-pyridylmethylpropylamine derivatives, preparation process thereof and bactericides” (priority 2004, published 2004).

Assay in all cases: Antifungal activity test (PDA plate, hypha extension inhibition)
What all share (type): cell-based

One assay concerns Venturia inaequalis. The conditions noted are these: 3.2 ppm in PDA culture medium. The procedure:
(§1) (Antifungal Activity Test against Various Pathogenic Fungi) For each of the compounds I-1 to 27 of the present invention and the comparative compounds (a) to (d), (m-1) and (m-3), 20 mg was weighed and dissolved in 2 ml of dimethylsulfoxide, and a double dilution row in 10 steps was prepared by further using dimethylsulfoxide. A 0.6 ml portion of these solutions was each added to 60 ml of a PDA culture medium (potato-dextrose-agar culture medium) at about 60° C., they were well mixed in a 100 ml Erlenmeyer flask, the solution was poured into a schale and was solidified, the plate culture media containing the compounds according to the present invention with final concentrations of 100, 50.0, 25.0, 12.5, 6.3, 3.2, 1.6, 0.8, 0.4 and 0.2 mg/l were prepared. On the other hand, the specimen bacteria cultured on the plate culture media beforehand was punched by a 4 mm diameter cork borer, and was inoculated on the plate culture media containing the aforementioned chemicals. After the inoculation, the bacteria were cultured at the optimum growth temperature of each bacterium for 1 to 7 days (for this optimum growth temperature, LIST OF CULTURES 1996 Microorganisms 10th edition published by Fermentation Research Institute (Foundation) can be referred to.), and the growth of the bacteria was measured by the diameter of a colony. […]

Assay [1] concerns Pseudocercosporella herpotrichoides. The conditions noted are these: 25 ppm in PDA culture medium. The procedure:
as §1

Another assay concerns Septoria tritici. The note with it: 100 ppm in PDA culture medium. On the procedure:
(Antifungal Activity Test against Various Pathogenic Fungi) For each of the compounds I-1 to 27 of the present invention and the comparative compounds (a) to (d), (m-1) and (m-3), 20 mg was weighed and dissolved in 2 ml of dimethylsulfoxide, and a double dilution row in 10 steps was prepared by further using dimethylsulfoxide. A 0.6 ml portion of these solutions was each added to 60 ml of a PDA culture medium (potato-dextrose-agar culture medium) at about 60° C., they were well mixed in a 100 ml Erlenmeyer flask, the solution was poured into a schale and was solidified, the plate culture media containing the compounds according to the present invention with final concentrations of 100, 50.0, 25.0, 12.5, 6.3, 3.2, 1.6, 0.8, 0.4 and 0.2 mg/l were prepared. On the other hand, the specimen bacteria cultured on the plate culture media beforehand was punched by a 4 mm diameter cork borer, and was inoculated on the plate culture media containing the aforementioned chemicals. After the inoculation, the bacteria were cultured at the optimum growth temperature of each bacterium for 1 to 7 days (for this optimum growth temperature, LIST OF CULTURES 1996 Microorganisms 10th edition published by Fermentation Research Institute (Foundation) can be referred to.), and the growth of the bacteria was measured by the diameter of a colony. […] R=100(dc−dt)/dc (Equation 3) [wherein each symbol is shown as follows: R=Hypha extension inhibition rate (%), dc=Diameter of colony on no-treated plate, dt=Diameter of colony on chemical-treated plate.] The results obtained above was evaluated in 5 steps in accordance with the following examination scale. <Growth Inhibition> 5: Hypha extension inhibition rate of 90% or more 4: Hypha extension inhibition rate of from 70% to less than 90% 3: […] 2: […] In addition, the abbreviations in Table 10 are as follows: S.t: Septoria tritici

SMILES strings stand for the structures.

As to `CC(Cc1ccc(C(F)(F)F)c(F)c1F)CN(C)Cc1ccc(Cl)nc1` (stereo not drawn) [Compound I-10], in the assay on Venturia inaequalis, the “Growth Inhibition V.i (3.2)” value is 4 (Hypha extension inhibition rate of from 70% to less than 90%). The “Growth Inhibition P.h (25)” value in assay [1] is 5 (Hypha extension inhibition rate of 90% or more). Moreover, the “Growth Inhibition S.t (100)” value with Septoria tritici is recorded as 4 (Hypha extension inhibition rate of from 70% to less than 90%).

For the molecule `CC(Cc1ccc2c(c1)OC(F)(F)O2)CN(C)Cc1ccc(Cl)nc1` (stereo not drawn) [Compound I-24], in the assay on Venturia inaequalis, the “Growth Inhibition V.i (3.2)” value is reported as 4 (Hypha extension inhibition rate of from 70% to less than 90%). Moreover, the “Growth Inhibition P.h (25)” value in assay [1] is 5 (Hypha extension inhibition rate of 90% or more). For the same molecule, the “Growth Inhibition S.t (100)” value with Septoria tritici is given as 4 (Hypha extension inhibition rate of from 70% to less than 90%).
